Source: patent US8618074B2, “GPCR enhanced neuroprotection to treat brain injury” (Board of Regents of the University of Texas System, priority 2007, dated 2013)

Columns and labels:
[1] = tested on: astrocytes; test: Fura-2 two-photon imaging of intracellular Ca2+ response; format: cell-based, mouse
Description: Ca^2+ activity was imaged as previously described (Camacho and Lechleiter, 1995). In brief, cultured astrocytes were incubated with the fura-2 am (Molecular Probes, #F-1221) 30 min prior to the experiment. Images were acquired with two-photon excitation (800 nm) at the rate of 1.5 images/ sec. […] Images were analyzed with Image J and ANALYZE® software (the Mayo Foundation, Rochester, MN). The D-enantiomer of the 1P3-BM ester was synthesized by Stuart Conway in the Cambridge University Chemical Laboratory by using a modification of the protocol of Tsien and co-workers (Li et al., 1997).
The primary response of glial cells to extracellular ATP is an increase in intracellular Ca^2+. To investigate whether the protective effect of ATP could be initiated by a Ca^2+ response, we loaded cultures of astrocytes with the Ca^2+ indicator dye Fura-2 AM (10 μM for 30 minutes). Fura-2 fluorescence was imaged with 2-photon microscopy using 800 nm excitation. At this wavelength, fluorescence is primarily due to the Ca^2+ free form of fura-2. […] When young astrocyte cultures were exposed to extracellular ATP (10 μM for 10 minutes), the peak intracellular Ca^2+ (−ΔF/F) was increased to 0.46±0.02 (n=25, pooled from 2 experiments). […] We tested whether the ATP-induced Ca^2+ response could be attributed to the metabotropic pathway, since IP3 mediated Ca^2+ release can stimulate mitochondrial energy production as well as sensitize mitochondria to apoptotic stimuli. Astrocytes cultured from old mice were pretreated with Xestospongin C (XeC, 25 μM for 30 minutes), which is a competitive inhibitor of IP3 binding to the IP3R. […] This is consistent with other reports showing that activation of the ionotropic P2X receptor activation also increases Ca^2+ in cultured astrocytes. To determine whether the metabotropic pathway was involved with the protective effect of extracellular ATP, we subsequently exposed the XeC/ATP treated astrocytes to oxidative stress. As described above, the perfusate contained t-BuOOH (100 μM) and TMRE (200 nM) to monitor ΔΨ. Under these experimental conditions, the average time until ΔΨ collapse was reduced to 5.48±0.22 (n=23, pooled from 2 experiments) in young astrocytes (FIG. 1C) and to 4.02±0.18 h (n=19, pooled from 2 experiments) in old astrocytes (FIG. 2C). […] We concluded that the protective effect of ATP on astrocytes was mediated by P2Y-receptors (P2Y-Rs).

[2] = tested on: astrocytes; test: Rose Bengal induced blood clot, Fluo4 Ca2+ imaging of astrocytes in live mouse; format: in vivo; conditions: 2-MeSADP co-injected with Rose Bengal in tail vein; blood brain barrier breakdown at clot
Description: Our working hypothesis states that P2Y-R activation in astrocytes leads to intracellular Ca^2+ release. […] In this experiment, the Ca^2+ indicator Fluo4-AM was loaded into astrocytes (90 minutes, 100 μM). Rose Bengal (RB) and the P2Y-R specific agonist 2-MeSADP were then co-injected in the tail vein of a live mouse. RB was illuminated with green light (543 nm), inducing reactive singlet oxygen and blood clots. A blood vessel was free flowing at 180 minutes, then clotted around 220 minutes after RB injection. […] More distal astrocytes a4 and a5 were not activated.

[3] = tested on: astrocytes; test: Single cell astrocyte edema (swelling) after RB-induced photothrombotic event; format: in vivo, mouse; conditions: tail-vein injection
Text: A critical role for mitochondrial metabolism is also supported by new data obtained from a transgenic mouse model expressing a mitochondrial targeted DNA restriction enzyme, EcoR1, under the control of doxycycline (tTA/mtEcoR1, courtesy of Dr. Chris Walters, UTHSCSA). […] In addition to optically imaging multiple physiological parameters in single cells (e.g. mitochondrial membrane potentials and Ca2+ levels in real time), we have successfully imaged single cells edema formation in response to a Rose Bengal (RB)-induced photothrombotic event in a single blood vessel. Our preliminary measurements indicate that astrocyte volume increases over 6-fold during edema formation.

Row | Structure (SMILES) | peak Ca2+ amplitude (−ΔF/F) ([1]; old astrocytes, ATP 10 μM) | peak intracellular Ca2+ (−ΔF/F) ([1]; young astrocytes, ATP 10 μM for 10 minutes) | activation (Ca2+) of astrocytes near the RB-induced clot [2] | astrocyte swelling (edema) [3] | time to apparently complete reversal of astrocyte swelling after the initial clot [3] [h]
1 | Nc1ncnc2c1ncn2[C@@H]1O[C@H](COP(=O)(O)OP(=O)(O)OP(=O)(O)O)[C@@H](O)[C@H]1O [ATP] | 0.46±0.04 | 0.46±0.02 | – | – | –
2 | CSc1nc(N)c2ncn([C@@H]3O[C@H](COP(=O)(O)OP(=O)(O)O)[C@@H](O)[C@H]3O)c2n1 [2-MeSADP] | – | – | activate nearby astrocytes | significantly reduced swelling | ≤ 8
